Test results taken from patent publication US11197904B2, “Pharmaceutical compositions for preventions and managements of dementia, infectious diseases, cancers, periodontitis, dental caries, diabetes, obesity, osteoporosis and chronic pain and methods thereof” (Chung Shan Medical University, priority 2018, dated 2021).
In brackets after ≈: the same amount, converted by molar mass. Where two headings read alike, the source gives them in different places.

Assays:
[1] = tested on: Porphyromonas gingivalis (P.g.); test: microbe, parasite or virus in culture; settings: read-out: IC50, 50% inhibition on bacterial proliferation, P. g.
[2] = tested on: Streptococcus mutans (S.m., UA159); test: microbe, parasite or virus in culture; settings: read-out: IC50, 50% inhibition on bacterial proliferation, UA159
[3] = tested on: Pseudomonas aeruginosa (P.a.); test: microbe, parasite or virus in culture; settings: read-out: IC50, 50% inhibition on bacterial proliferation, P. a.
[4] = tested on: Staphylococcus aureus (S.a); test: microbe, parasite or virus in culture; settings: read-out: IC50, 50% inhibition on bacterial proliferation, S. a.
[5] = tested on: Lactobacillus reuteri (L.r.); test: Proliferation of the probiotic Lactobacillus reuteri (OD600); type: cell-based
[6] = tested on: Porphyromonas gingivalis (P.g.)
[7] = tested on: Streptococcus mutans (S.m., UA159)
[8] = tested on: Pseudomonas aeruginosa (P.a.); settings: for IC50: read-out: IC50, P. a., metals alone
[9] = tested on: Staphylococcus aureus (S.a); settings: for IC50: read-out: IC50, S. a., metals alone
[10] = 3 to 10 times higher IC50, Table 2
[11] = read-out: IC50, P. g., metals alone
[12] = read-out: IC50, UA159, metals alone

| Compound | IC50 [1] [µg/mL] | IC50 [2] [µg/mL] | IC50 [3] [µg/mL] | IC50 [4] [µg/mL] | other results |
| --- | --- | --- | --- | --- | --- |
| CC(O)(P(=O)(O)O)P(=O)(O)O [Etidronate] | 46 (≈ 223 µM) | 597 (≈ 2900 µM) | > 1000 | 350 (≈ 1700 µM) |  |
| CN(C)CCCN1c2ccccc2Sc2ccc(Cl)cc21 [Chlorpromazine] | 5 (≈ 15.7 µM) | 7 (≈ 22 µM) | 149 (≈ 467 µM) | 12 (≈ 37.6 µM) | Inhibition on proliferation of Lactobacillus reuteri [5, 10]: CPZ, Chlorpromazine* |
| N=C(N)NCCC[C@H](N)C(=O)N[C@@H](Cc1ccccc1)C(=O)O [ArgPhe] |  |  |  |  | IC50, 50% inhibition on bacterial proliferation, P. g. [6]: >100 µg/mL; IC50, 50% inhibition on bacterial proliferation, UA159 ([7]; S.m., UA159): >100 µg/mL; IC50, 50% inhibition on bacterial proliferation, P. a. ([8]; P.a., 16 h): >100 µg/mL; IC50, 50% inhibition on bacterial proliferation, S. a. ([9]; S.a, 16 h): >100 µg/mL |
| Cc1nc(C)c(C)nc1C [Tetramethyl-pyrazine] | 37 (≈ 272 µM) | > 300 | > 300 | > 300 |  |
| CO[C@H]1/C=C/O[C@@]2(C)Oc3c(C)c(O)c4c(O)c(c(/C=N/N5CCN(C)CC5)c(O)c4c3C2=O)NC(=O)/C(C)=C\C=C\[C@H](C)[C@H](O)[C@@H](C)[C@@H](O)[C@@H](C)[C@H](OC(C)=O)[C@@H]1C [Rifampin] | 0.45 (≈ 0.547 µM) | 0.013 (≈ 0.0158 µM) | 26 (≈ 31.6 µM) | 0.013 (≈ 0.0158 µM) |  |
| Cardiotoxin |  |  |  |  | IC50, 50% inhibition on bacterial proliferation, P. g. ([6]; single agent): 11 µg/mL; IC50, 50% inhibition on bacterial proliferation, UA159 ([7]; single agent): >10 µg/mL; IC50, 50% inhibition on bacterial proliferation, P. a. ([8]; single agent): >10 µg/mL; IC50, 50% inhibition on bacterial proliferation, S. a. ([9]; single agent): >10 µg/mL |
| NNC(=O)c1ccncc1 [Isoniazid] | > 300 | > 300 | > 300 | > 300 |  |
| CN(C)C(=N)N=C(N)N [Metformin] | 639 (≈ 4950 µM) | > 1000 | > 1000 | > 1000 | Inhibition on proliferation of Lactobacillus reuteri [5, 10]: MF, Metformin* |
| COc1ccc2cc3[n+](cc2c1OC)CCc1cc2c(cc1-3)OCO2 [Berberine] | > 100 | 25 | > 100 | > 100 |  |
| N.N.[Cl][Pt][Cl] [Pt] |  |  |  |  | IC50 ([6]; read-out: IC50 of single drug, Table 14, P. g., drug alone): 69 µM; IC50 ([7]; read-out: IC50 of single drug, Table 14, UA159, drug alone): > 100 µM |
| polyarginine |  |  |  |  | IC50, 50% inhibition on bacterial proliferation, P. g. ([6]; single agent): 25 µg/mL; IC50, 50% inhibition on bacterial proliferation, UA159 ([7]; single agent): >100 µg/mL; IC50, 50% inhibition on bacterial proliferation, P. a. ([8]; single agent): >100 µg/mL; IC50, 50% inhibition on bacterial proliferation, S. a. ([9]; single agent): >100 µg/mL |
| CSc1ccc2c(c1)N(CCC1CCCCN1C)c1ccccc1S2 (stereo not drawn) [Thioridazine] |  |  |  |  | Inhibition on proliferation of Lactobacillus reuteri [5, 10]: TRZ, Thioridazine* |
| [Na+].[Na+].[Na+].[O]=[V]([O-])([O-])[O-] [Na3VO4] |  |  |  |  | IC50 [6, 11]: 217 µM; IC50 [7, 12]: 866 µM; IC50 [8]: > 2000 µM; IC50 [9]: > 2000 µM |
| [Cl][Cu][Cl] [CuCl2] |  |  |  |  | IC50 [6, 11]: 673 µM; IC50 [7, 12]: 448 µM; IC50 [8]: 1690 µM; IC50 [9]: > 2000 µM |
| O=C(O[C@@H]1Cc2c(O)cc(O)cc2O[C@@H]1c1cc(O)c(O)c(O)c1)c1cc(O)c(O)c(O)c1 [EGCG] |  |  |  |  | IC50, 50% inhibition on bacterial proliferation, P. g. ([6]; single agent): 83 µg/mL (≈ 181 µM); IC50, 50% inhibition on bacterial proliferation, UA159 ([7]; single agent): 137 µg/mL (≈ 299 µM); IC50, 50% inhibition on bacterial proliferation, P. a. ([8]; single agent): 173 µg/mL (≈ 377 µM); IC50, 50% inhibition on bacterial proliferation, S. a. ([9]; single agent): 142 µg/mL (≈ 310 µM) |
| Lysozyme |  |  |  |  | IC50, 50% inhibition on bacterial proliferation, P. g. ([6]; single agent): 21 µg/mL; IC50, 50% inhibition on bacterial proliferation, UA159 ([7]; single agent): >100 µg/mL; IC50, 50% inhibition on bacterial proliferation, P. a. ([8]; single agent): >100 µg/mL; IC50, 50% inhibition on bacterial proliferation, S. a. ([9]; single agent): >100 µg/mL |

| Compound | IC50 [1] [µg/mL] | IC50 [2] [µg/mL] | IC50 [3] [µg/mL] | IC50 [4] [µg/mL] | other results |
| --- | --- | --- | --- | --- | --- |
| CC(Cc1ccc(O)c(O)c1)C(C)Cc1ccc(O)c(O)c1 (stereo not drawn) [Nordihydro-guaiaretic acid] | < 30 | 50 (≈ 165 µM) | > 300 | 66 (≈ 218 µM) |  |
| C=C[C@H]1C[N@@]2CC[C@H]1C[C@H]2[C@H](O)c1ccnc2ccc(OC)cc12 [Quinine] | 43 (≈ 133 µM) | > 100 | > 100 | > 100 |  |
| [H]/N=C(/N)N[C@H]1[C@H](O)[C@@H](O)[C@H](O[C@@H]2O[C@@H](C)[C@](O)(C=O)[C@H]2O[C@@H]2O[C@@H](CO)[C@H](O)[C@@H](O)[C@@H]2NC)[C@@H](N/C(N)=N\[H])[C@@H]1O [Streptomycin] | 9 (≈ 15.5 µM) | 21 (≈ 36.1 µM) | 5 (≈ 8.6 µM) | 0.2 (≈ 0.344 µM) |  |
| O[C@H](CS)[C@H](O)CS (racemic) [Dithiothreitol] | > 300 | > 300 | > 300 | > 300 |  |
| NC[C@H]1O[C@H](O[C@H]2[C@H](O)[C@@H](O[C@H]3O[C@H](CO)[C@@H](O)[C@H](N)[C@H]3O)[C@H](N)C[C@@H]2N)[C@H](N)C[C@@H]1O [Tobramycin] | 4 (≈ 8.56 µM) | < 3 | 9 (≈ 19.3 µM) | < 3 |  |
| Cc1cc(N)c2ccccc2[n+]1CCCCCCCCCC[n+]1c(C)cc(N)c2ccccc21 [Dequalinium] | 3 | 1 | > 10 | 2 |  |
| C[C@@H]1CC[C@@]2(OC1)O[C@H]1[C@@H](O)[C@H]3[C@@H]4CC[C@H]5C[C@@H](O[C@@H]6O[C@H](CO)[C@H](O[C@@H]7O[C@H](CO)[C@@H](O)[C@H](O[C@@H]8OC[C@@H](O)[C@H](O)[C@H]8O)[C@H]7O[C@@H]7O[C@H](CO)[C@H](O)[C@H](O[C@@H]8O[C@H](CO)[C@@H](O)[C@H](O)[C@H]8O)[C@H]7O)[C@H](O)[C@H]6O)[C@H](O)C[C@]5(C)[C@H]4CC[C@]3(C)[C@H]1[C@@H]2C [Digitonin] | 123 (≈ 100 µM) | > 300 | > 300 | > 300 |  |
| CC12CC3CC(C)(C1)CC(N)(C3)C2 [Memantine] | 59 (≈ 329 µM) | 386 (≈ 2150 µM) | 321 (≈ 1790 µM) | 435 (≈ 2430 µM) |  |
| COc1cc(/C=C/C(=O)CC(=O)/C=C/c2ccc(O)c(OC)c2)ccc1O [Curcumin] | 126 (≈ 342 µM) | 42 (≈ 114 µM) | 302 (≈ 820 µM) | < 1000 | Inhibition on proliferation of Lactobacillus reuteri ([5]; 3 to 10 times higher than the listed IC50, Table 1): C*, Curcumin |
| protamine |  |  |  |  | IC50, 50% inhibition on bacterial proliferation, P. g. ([6]; single agent): 31 µg/mL; IC50, 50% inhibition on bacterial proliferation, UA159 ([7]; single agent): >100 µg/mL; IC50, 50% inhibition on bacterial proliferation, P. a. ([8]; single agent): >100 µg/mL; IC50, 50% inhibition on bacterial proliferation, S. a. ([9]; single agent): >100 µg/mL |
| COc1ccc(CCN(C)CCCC(C#N)(c2ccc(OC)c(OC)c2)C(C)C)cc1OC (stereo not drawn) [Verapamil] | 137 (≈ 301 µM) | > 300 | > 300 | > 300 |  |
| CCCCCCc1ccc(O)cc1O [4-Hexyl-Resorcinol] | 20 (≈ 103 µM) | 15 (≈ 77.2 µM) | > 100 | 32 (≈ 165 µM) |  |
| O=c1c(O)c(-c2ccc(O)c(O)c2)oc2cc(O)cc(O)c12 [Quercetin] | > 100 | 46 (≈ 152 µM) | > 100 | > 100 |  |
| COc1ccc([C@@H]2Sc3ccccc3N(CCN(C)C)C(=O)[C@@H]2OC(C)=O)cc1 [Diltiagem] |  |  |  |  | IC50, 50% inhibition on bacterial proliferation, P. g. ([6]; single agent): 104 µg/mL (≈ 251 µM); IC50, 50% inhibition on bacterial proliferation, UA159 ([7]; single agent): >300 µg/mL; IC50, 50% inhibition on bacterial proliferation, P. a. ([8]; single agent): >300 µg/mL; IC50, 50% inhibition on bacterial proliferation, S. a. ([9]; single agent): >300 µg/mL |
| Phospholipase A2 |  |  |  |  | IC50, 50% inhibition on bacterial proliferation, P. g. ([6]; single agent): >10 µg/mL; IC50, 50% inhibition on bacterial proliferation, UA159 ([7]; single agent): >10 µg/mL; IC50, 50% inhibition on bacterial proliferation, P. a. ([8]; single agent): >10 µg/mL; IC50, 50% inhibition on bacterial proliferation, S. a. ([9]; single agent): >10 µg/mL |
| C[C@@H]1[C@H](O)[C@@H](C)/C=C/C=C/CC/C=C/C=C/C=C/C=C/C(O[C@H]2O[C@H](C)[C@@H](O)[C@H](N)[C@@H]2O)CC2O[C@](O)(CC(O)C(O)CCC(O)CC(O)CC(O)CC(=O)O[C@H]1C)CC(O)C2C(=O)O (stereo partly drawn) [Nystatin] |  |  |  |  | IC50, 50% inhibition on bacterial proliferation, P. g. ([6]; single agent): 228 µg/mL (≈ 246 µM); IC50, 50% inhibition on bacterial proliferation, UA159 ([7]; single agent): >300 µg/mL; IC50, 50% inhibition on bacterial proliferation, P. a. ([8]; single agent): >300 µg/mL; IC50, 50% inhibition on bacterial proliferation, S. a. ([9]; single agent): >300 µg/mL |
